Where only a bound is given, the exact number is not on record here.

In the assay the test system is PCSK9. Put plainly: PCSK9 secretion assay in HepG2 cells (PCSK9 ELISA). The settings on record: HepG2 cells; for IC50: 16 hours incubation, at least 6 concentrations. Format: cell-based. On the procedure:
HepG2 cells (from ATCC, Catalog no. HB-8065) were maintained in DMEM (Invitrogen) supplemented with 10% fetal bovine serum (Invitrogen). The day prior to the PCSK9 assay, cells are seeded in 96-well collagen coated plates at 25,000 cells/well.
The compounds of the invention were stored at −20° C. until used. The test article compound was dissolved in 100% ethanol to a 50 mM stock solution. This was then diluted in FBS to a final concentration of 1 mM. This solution was placed in a sonicating water bath for 30 minutes. Subsequent dilutions were then made in FBS supplemented with an equivalent volume of ethanol and mixed by vortexing.
HepG2 cells were seeded onto a collagen coated 96-well plate (Becton Dickinson, Catalog no. 35-4407) the day prior to the assay, as described above. The next day, the cell medium was removed, washed once with 100 μL serum free DMEM to remove any residual PCSK9, and replaced with 90 μL of serum free DMEM. Ten microliters of each compound concentration prepared in FBS was then added. Each concentration of compound was tested in triplicate. The compound was incubated with the cells overnight for 16 hours. Following this incubation, 10 μL of AlamarBlue was added to each well and cells incubated for another 2 hours. The plates were then removed and AlamarBlue fluorescence was measured (excitation, 550 nm and […]) to assess cell viability. Cell culture supernatant was then diluted […] 1×RDSP Calibrator Diluent and PCSK9 ELISA was then performed with 50 μL of this diluted sample, as per the manufacturer's instructions. The ELISA was measured on a Victor X5 multilabel plate reader (PerkinElmer) at an absorbance of 450 nm with background correction measured at 550 nm (The PCSK9 Elisa kits can be purchased from R&D System, Catalog no. DPC900).
Alternatively, an IC50 could also be obtained when this type of assay was carried out using at least 6 different concentrations of the test compounds. Table 1 lists the IC50 values for the compounds tested in this assay.
(In general: In an ELISA, binding on a coated surface is turned into a signal by an enzyme label.)

For `CC/C=C\C/C=C\C/C=C\C/C=C\C/C=C\CCCC(=O)N1CCN(C(=O)C(C)(C)Oc2ccc(C(=O)c3ccc(Cl)cc3)cc2)CC1` [VII-42, (5Z,8Z,11Z,14Z,17Z)-1-(4-(2-(4-(4-chlorobenzoyl)phenoxy)-2-methylpropanoyl)piperazin-1-yl)icosa-5,8,11,14,17-pentaen-1-one], the IC50 – broadly, the concentration that inhibits the measured activity by half – was < 25 µM. Turning to `CC/C=C\C/C=C\C/C=C\C/C=C\C/C=C\CCCC(=O)N1CC[C@H](CNC(=O)C2=CC(=O)C(C)(c3ccccc3)O2)C1` (stereo partly drawn) [VII-5, N—(((R)-1-((5Z,8Z,11Z,14Z,17Z)-icosa-5,8,11,14,17-pentaenoyl)pyrrolidin-3-yl)methyl)-5-methyl-4-oxo-5-phenyl-4,5-dihydrofuran-2-carboxamide], the IC50 is < 25 µM. Consider `CC/C=C\C/C=C\C/C=C\C/C=C\C/C=C\CCCC(=O)N1CCC(CNC(=O)C(C)(C)Oc2ccc(C(=O)c3ccc(Cl)cc3)cc2)CC1` [VII-20, 2-(4-(4-chlorobenzoyl)phenoxy)-N-((1-((5Z,8Z,11Z,14Z,17Z)-icosa-5,8,11,14,17-pentaenoyl)piperidin-4-yl)methyl)-2-methylpropanamide], for which the IC50 was < 25 µM. On to `CC/C=C\C/C=C\C/C=C\C/C=C\C/C=C\CCCC(=O)NCCNC(=O)CCNC(=O)c1cccnc1` [Compound I-26, N-(3-((2-((5Z,8Z,11Z,14Z,17Z)-icosa-5,8,11,14,17-pentaenamido)ethyl)amino)-3-oxopropyl)nicotinamide], for which the IC50 was in the range of 25 to 50 µM. Still for that read-out and setting: the result for `CC/C=C\C/C=C\C/C=C\C/C=C\C/C=C\CCCC(=O)NCC(C)(C)NC(=O)c1cccnc1` [Compound I-21, N-(1-((5Z,8Z,11Z,14Z,17Z)-icosa-5,8,11,14,17-pentaenamido)-2-methylpropan-2-yl)nicotinamide] reads < 25 µM; that for `CC/C=C\C/C=C\C/C=C\C/C=C\C/C=C\CCCC(=O)N[C@H]1CCN(C(=O)c2cccnc2)C1` [Compound I-23, (5Z,8Z,11Z,14Z,17Z)—N—((S)-1-nicotinoylpyrrolidin-3-yl)icosa-5,8,11,14,17-pentaenamide], < 25 µM; that for `CC/C=C\C/C=C\C/C=C\C/C=C\C/C=C\CCCC(=O)N1CC[C@@H](NC(=O)C2=CC(=O)C(C)(c3ccccc3)O2)C1` (stereo partly drawn) [VII-3, N—((R)-1-((5Z,8Z,11Z,14Z,17Z)-icosa-5,8,11,14,17-pentaenoyl)pyrrolidin-3-yl)-5-methyl-4-oxo-5-phenyl-4,5-dihydrofuran-2-carboxamide], < 25 µM. Regarding `CC/C=C\C/C=C\C/C=C\C/C=C\C/C=C\CCCC(=O)N1CCC[C@@H]1CNC(=O)C(C)(C)Oc1ccc(C(=O)c2ccc(Cl)cc2)cc1` [VII-23, 2-(4-(4-chlorobenzoyl)phenoxy)-N—(((R)-1-((5Z,8Z,11Z,14Z,17Z)-icosa-5,8,11,14,17-pentaenoyl)pyrrolidin-2-yl)methyl)-2-methylpropanamide], the 50% inhibitory concentration (IC50) is < 25 µM. Regarding `CC/C=C\C/C=C\C/C=C\C/C=C\C/C=C\C/C=C\CCC(=O)NCCOCCOCCOC` [III-1, (4Z,7Z,10Z,13Z,16Z,19Z)—N-(2-(2-(2-methoxyethoxy)ethoxy)ethyl)docosa-4,7,10,13,16,19-hexaenamide], the IC50 is > 50 µM. As for `CC/C=C\C/C=C\C/C=C\C/C=C\C/C=C\CCCC(=O)N[C@H]1CC[C@H](CNC(=O)c2cccnc2)CC1` [Compound I-41, N-(((1R,4R)-4-((5Z,8Z,11Z,14Z,17Z)-icosa-5,8,11,14,17-pentaenamido)cyclohexyl)methyl)nicotinamide], the IC50 is < 25 µM. For the compound `CC/C=C\C/C=C\C/C=C\C/C=C\C/C=C\CCCC(=O)N1CCC(CN(C)C(=O)c2cnc(C)c[n+]2[O-])CC1` [VII-16, 2-(((1-((5Z,8Z,11Z,14Z,17Z)-icosa-5,8,11,14,17-pentaenoyl)piperidin-4-yl)methyl)(methyl)carbamoyl)-5-methylpyrazine 1-oxide], the IC50 lay in the range of 25 to 50 µM. For `CC/C=C\C/C=C\C/C=C\C/C=C\C/C=C\CCCC(=O)NCCNC(=O)c1cccnc1-c1ccccc1` [VI-4, N-(2-((5Z,8Z,11Z,14Z,17Z)-icosa-5,8,11,14,17-pentaenamido)ethyl)-2-phenylnicotinamide], the IC50 was > 50 µM. On the same count and under the same terms, the result for `CC/C=C\C/C=C\C/C=C\C/C=C\C/C=C\CCCC(=O)N(C)[C@H]1CCN(C(=O)c2cccnc2)C1` [Compound I-49, (5Z,8Z,11Z,14Z,17Z)—N-methyl-N—((S)-1-nicotinoylpyrrolidin-3-yl)icosa-5,8,11,14,17-pentaenamide] reads 25 to 50 µM. `CC/C=C\C/C=C\C/C=C\C/C=C\C/C=C\CCCC(=O)NCCNC(=O)CNC(=O)c1cccnc1` [Compound I-30, N-(2-((2-((5Z,8Z,11Z,14Z,17Z)-icosa-5,8,11,14,17-pentaenamido)ethyl)amino)-2-oxoethyl)nicotinamide] had a half-inhibitory concentration (IC50) of 25 to 50 µM.

On to `CC/C=C\C/C=C\C/C=C\C/C=C\C/C=C\CCCC(=O)N1CCC(CNC(=O)c2cccnc2)CC1` [Compound I-31, N-((1-((5Z,8Z,11Z,14Z,17Z)-icosa-5,8,11,14,17-pentaenoyl)piperidin-4-yl)methyl)nicotinamide], for which the 50% inhibitory concentration (IC50) is < 25 µM. `CC/C=C\C/C=C\C/C=C\C/C=C\C/C=C\CCCC(=O)N1CC[C@H](NC(=O)c2cnc(C)c[n+]2[O-])C1` [VII-12, 2-(((S)-1-((5Z,8Z,11Z,14Z,17Z)-icosa-5,8,11,14,17-pentaenoyl)pyrrolidin-3-yl)carbamoyl)-5-methylpyrazine 1-oxide]: the IC50 was > 50 µM. With `CC/C=C\C/C=C\C/C=C\C/C=C\C/C=C\CCCC(=O)N1CCC(NC(=O)C2=CC(=O)C(C)(c3ccccc3)O2)CC1` (stereo not drawn) [VII-1, N-(1-((5Z,8Z,11Z,14Z,17Z)-icosa-5,8,11,14,17-pentaenoyl)piperidin-4-yl)-5-methyl-4-oxo-5-phenyl-4,5-dihydrofuran-2-carboxamide], the half-inhibitory concentration (IC50) was < 25 µM. The same measure, in the same setting: the result for `CC/C=C\C/C=C\C/C=C\C/C=C\C/C=C\CCCC(=O)NCCNC(=O)c1cccnc1O` [VI-3, 2-hydroxy-N-(2-((5Z,8Z,11Z,14Z,17Z)-icosa-5,8,11,14,17-pentaenamido)ethyl)nicotinamide] reads > 50 µM. Regarding `CC/C=C\C/C=C\C/C=C\C/C=C\C/C=C\CCCC(=O)NCCNC(C)=O` [Compound A, (5Z,8Z,11Z,14Z,17Z)—N-(2-acetamidoethyl)icosa-5,8,11,14,17-pentaenamide, reference compound], the “activity toward PCSK9” value (highest tested concentration of 50 μM, FIG. 1) is listed as “essentially no activity”. For `CC/C=C\C/C=C\C/C=C\C/C=C\C/C=C\CCCC(=O)N1CC[C@@H](NC(=O)c2cnc(C)c[n+]2[O-])C1` [VII-11, 2-(((R)-1-((5Z,8Z,11Z,14Z,17Z)-icosa-5,8,11,14,17-pentaenoyl)pyrrolidin-3-yl)carbamoyl)-5-methylpyrazine 1-oxide], the half-maximal inhibitory concentration (IC50) is > 50 µM. With `CC/C=C\C/C=C\C/C=C\C/C=C\C/C=C\CCCC(=O)NCCNC(=O)[C@@H](NC(=O)c1cccnc1)C(C)C` [Compound I-25, N—((S)-1-((2-((5Z,8Z,11Z,14Z,17Z)-icosa-5,8,11,14,17-pentaenamido)ethyl)amino)-3-methyl-1-oxobutan-2-yl)nicotinamide], the IC50 was 25 to 50 µM.

`CC/C=C\C/C=C\C/C=C\C/C=C\C/C=C\CCCC(=O)NCCNC(=O)c1cncc(-c2ccccc2)c1` [VI-2, N-(2-((5Z,8Z,11Z,14Z,17Z)-icosa-5,8,11,14,17-pentaenamido)ethyl)-5-phenylnicotinamide]: the 50% inhibitory concentration (IC50) is 25 to 50 µM.

As for `CC/C=C\C/C=C\C/C=C\C/C=C\C/C=C\CCCC(=O)NCCNC(=O)c1ccc(=O)n(C)c1` [II-7, N-(2-((5Z,8Z,11Z,14Z,17Z)-icosa-5,8,11,14,17-pentaenamido)ethyl)-1-methyl-6-oxo-1,6-dihydropyridine-3-carboxamide], the concentration for half-maximal inhibition (IC50) was > 50 µM. Consider `CC/C=C\C/C=C\C/C=C\C/C=C\C/C=C\C/C=C\CCC(=O)NCCNC(=O)C(C)(C)Oc1ccc(C(=O)c2ccc(Cl)cc2)cc1` [II-36, (4Z,7Z,10Z,13Z,16Z,19Z)—N-(2-(2-(4-(4-chlorobenzoyl)phenoxy)-2-methylpropanamido)ethyl)docosa-4,7,10,13,16,19-hexaenamide], for which the IC50 was < 25 µM. Still for that read-out and setting: the result for `CC/C=C\C/C=C\C/C=C\C/C=C\C/C=C\CCCC(=O)NC1CCN(C(=O)c2cccnc2)CC1` [Compound I-28, (5Z,8Z,11Z,14Z,17Z)—N-(1-nicotinoylpiperidin-4-yl)icosa-5,8,11,14,17-pentaenamide] reads < 25 µM; that for `CC/C=C\C/C=C\C/C=C\C/C=C\C/C=C\CCCC(=O)N1CC[C@H](N(C)C(=O)C2=CC(=O)C(C)(c3ccccc3)O2)C1` (stereo partly drawn) [VII-9, N—((S)-1-((5Z,8Z,11Z,14Z,17Z)-icosa-5,8,11,14,17-pentaenoyl)pyrrolidin-3-yl)-N,5-dimethyl-4-oxo-5-phenyl-4,5-dihydrofuran-2-carboxamide], 25 to 50 µM; that for `CC/C=C\C/C=C\C/C=C\C/C=C\C/C=C\CCCC(=O)NCCNC(=O)c1ccc(CCN2CCCC2)nc1` [Compound V-8, N-(2-((5Z,8Z,11Z,14Z,17Z)-icosa-5,8,11,14,17-pentaenamido)ethyl)-6-(2-(pyrrolidin-1-yl)ethyl)nicotinamide], < 25 µM.

Source of the values: patent US20140093513A1, “METHODS OF LOWERING PROPROTEIN CONVERSATE SUBTILISIN/KEXIN TYPE 9 (PCSK9)” (Catabasis Pharmaceuticals, Inc., priority 2012, published 2014).
